US10364238B2, “N-((het) arylmethyl)-heteroaryl-carboxamides compounds as plasma kallikrein inhibitors” (KALVISTA PHARMACEUTICALS LIMITED, priority 2014, dated 2019)

Tests used:
Assay type in all cases: biochemical
Human plasma kallikrein = Human plasma kallikrein (Homo sapiens (Human), UniProt P03952); assay: Determination of the IC50 for plasma kallikrein; settings: 25° C., fluorogenic substrate H-DPro-Phe-Arg-AFC; read-out: IC50 (human PKaI)
Experimental: Determination of the IC50 for Plasma Kallikrein
(§1) Human plasma kallikrein (Protogen) was incubated at 25° C. with the fluorogenic substrate H-DPro-Phe-Arg-AFC and various concentrations of the test compound. Residual enzyme activity (initial rate of reaction) was determined by measuring the change in […] at 410 nm and the IC50 value for the test compound was determined.

Human KLK1 = Human KLK1 (Homo sapiens (Human), UniProt P06870); assay: Determination of the IC50 for KLK1; settings: 25° C., fluorogenic substrate H-DVal-Leu-Arg-AFC
Experimental: Determination of the IC50 for KLK1
as §1, with “KLK1 (Callbiochem)” for “plasma kallikrein (Protogen)”, “H-DVal-Leu-Arg-AFC” for “H-DPro-Phe-Arg-AFC”

Human FXIa = Human FXIa (Homo sapiens (Human), UniProt P03951); assay: Determination of the % inhibition for FXIa; settings: 40 μM test compound, 25° C., substrate Z-Gly-Pro-Arg-AFC
Experimental: Determination of the % Inhibition for FXIa
Human FXIa (Enzyme Research Laboratories) was incubated at 25° C. with the fluorogenic substrate Z-Gly-Pro-Arg-AFC and 40 μM of the test compound. Residual enzyme activity (initial rate of reaction) was determined by measuring the change in […].

Chain of Human plasma kallikrein (P03952 391-638): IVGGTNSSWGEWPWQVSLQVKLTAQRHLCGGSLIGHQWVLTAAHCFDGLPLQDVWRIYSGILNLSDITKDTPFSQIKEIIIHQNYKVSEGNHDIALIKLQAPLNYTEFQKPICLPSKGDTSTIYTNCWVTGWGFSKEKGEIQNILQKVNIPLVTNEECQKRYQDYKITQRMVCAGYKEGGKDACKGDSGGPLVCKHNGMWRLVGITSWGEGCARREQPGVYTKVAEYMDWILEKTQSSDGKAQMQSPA
Chain of Human plasma kallikrein (P03952 20-390 partner): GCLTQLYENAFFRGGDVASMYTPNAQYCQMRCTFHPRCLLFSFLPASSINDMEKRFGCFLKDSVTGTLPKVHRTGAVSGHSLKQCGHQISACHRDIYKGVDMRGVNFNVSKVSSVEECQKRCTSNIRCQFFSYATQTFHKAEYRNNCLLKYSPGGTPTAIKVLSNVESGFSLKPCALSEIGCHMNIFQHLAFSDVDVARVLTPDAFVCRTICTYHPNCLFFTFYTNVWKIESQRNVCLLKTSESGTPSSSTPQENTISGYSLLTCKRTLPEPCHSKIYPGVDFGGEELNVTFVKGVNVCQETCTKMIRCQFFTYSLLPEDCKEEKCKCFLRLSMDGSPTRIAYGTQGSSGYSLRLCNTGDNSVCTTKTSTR
Chain of Human KLK1 (P06870 25-262): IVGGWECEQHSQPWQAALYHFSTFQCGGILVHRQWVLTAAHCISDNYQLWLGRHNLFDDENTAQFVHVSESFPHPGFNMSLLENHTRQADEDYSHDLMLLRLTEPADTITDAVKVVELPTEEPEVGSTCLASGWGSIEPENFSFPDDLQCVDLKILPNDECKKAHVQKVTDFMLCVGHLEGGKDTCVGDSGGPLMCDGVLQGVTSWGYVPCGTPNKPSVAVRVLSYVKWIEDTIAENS
Chain of Human FXIa (P03951 388-625): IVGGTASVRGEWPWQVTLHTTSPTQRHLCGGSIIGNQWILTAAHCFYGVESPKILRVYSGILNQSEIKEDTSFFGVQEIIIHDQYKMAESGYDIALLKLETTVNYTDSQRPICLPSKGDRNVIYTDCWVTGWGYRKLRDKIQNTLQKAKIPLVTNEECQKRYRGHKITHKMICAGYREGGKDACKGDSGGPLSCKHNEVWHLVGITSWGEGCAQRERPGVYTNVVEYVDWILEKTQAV
Chain of Human FXIa (P03951 19-387 partner): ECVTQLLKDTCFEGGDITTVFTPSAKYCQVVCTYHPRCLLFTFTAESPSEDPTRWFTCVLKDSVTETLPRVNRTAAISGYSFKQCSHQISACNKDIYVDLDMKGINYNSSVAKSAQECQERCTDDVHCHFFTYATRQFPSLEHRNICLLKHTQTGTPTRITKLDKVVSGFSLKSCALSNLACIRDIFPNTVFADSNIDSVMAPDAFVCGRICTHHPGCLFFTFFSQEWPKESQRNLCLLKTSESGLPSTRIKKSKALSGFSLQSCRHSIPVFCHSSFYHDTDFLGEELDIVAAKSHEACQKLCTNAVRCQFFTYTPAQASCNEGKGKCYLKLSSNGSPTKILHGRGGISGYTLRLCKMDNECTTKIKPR

SMILES	IC50 (Human plasma kallikrein)	IC50 (Human KLK1)	inhibition at 40 µM (Human FXIa)	% Inhibition @ 40 μM (human FXIa) (Human FXIa)
COCc1nn(Cc2ccc(Cn3ccccc3=O)cc2)cc1C(=O)NCc1cccc(OC)c1 [Example 133, 3-(methoxymethyl)-N-[(3-methoxyphenyl)methyl]-1-({4-[(2-oxopyridin-1-yl)methyl]phenyl}methyl)pyrazole-4-carboxamide]	0.0902 µM	> 10 µM	1%	–
COCc1nn(Cc2ccc(Cn3ccccc3=O)cc2)cc1C(=O)NCc1cc(OC)cc(OC)c1 [Example 1, N-(3,5-Dimethoxybenzyl)-3-(methoxymethyl)-1-(4-((2-oxopyridin-1(2H)-yl)methyl)benzyl)-1H-pyrazole-4-carboxamide]	0.698 µM	> 10 µM	0%	–
COCc1nn(Cc2cnc3cc(Cl)ccc3c2)cc1C(=O)NCc1cccc(OC)c1F [Example 3, 1-(7-Chloro-quinolin-3-ylmethyl)-3-methoxymethyl-1H-pyrazole-4-carboxylic acid 2-fluoro-3-methoxy-benzylamide]	2.58 µM	> 10 µM	3%	–
COCc1nn(Cc2ccc(Cn3ccccc3=O)cc2)cc1C(=O)NCc1cc(OC)ccc1C(F)F [Example 81, N-{[2-(difluoromethyl)-5-methoxyphenyl]methyl}-3-(methoxymethyl)-1-({4-[(2-oxopyridin-1-yl)methyl]phenyl}methyl)pyrazole-4-carboxamide]	0.0023 µM	> 40 µM	1%	–
CN1CC(CNC(=O)c2cn(Cc3ccc(Cn4ccccc4=O)cc3)nc2N)Oc2cc(Cl)ccc21 (stereo not drawn) [Example 139, 3-amino-N-[(7-chloro-4-methyl-2,3-dihydro-1,4-benzoxazin-2-yl)methyl]-1-({4-[(2-oxopyridin-1-yl)methyl]phenyl}methyl)pyrazole-4-carboxamide]	0.0647 µM	> 40 µM	33%	–
NC(=O)c1ccccc1CNC(=O)c1cn(Cc2ccc(Cn3ccccc3=O)cc2)nc1C1CC1 [Example 48, N-[(2-carbamoylphenyl)methyl]-3-cyclopropyl-1-({4-[(2-oxopyridin-1-yl)methyl]phenyl}methyl)pyrazole-4-carboxamide]	0.647 µM	> 10 µM	2%	–
COCc1nn(Cc2ccc(Cn3ccccc3=O)cc2)cc1C(=O)NCc1ccc(C)cc1F [Example 65, N-[(2-fluoro-4-methylphenyl)methyl]-3-(methoxymethyl)-1-({4-[(2-oxopyridin-1-yl)methyl]phenyl}methyl)pyrazole-4-carboxamide]	0.0433 µM	> 10 µM	0%	–
COCc1nn(Cc2ccc(Cn3ccccc3=O)cc2)cc1C(=O)NCc1ccccc1F [Example 62, N-[(2-fluorophenyl)methyl]-3-(methoxymethyl)-1-({4-[(2-oxopyridin-1-yl)methyl]phenyl}methyl)pyrazole-4-carboxamide]	0.572 µM	> 10 µM	0%	–
COCc1nn(Cc2ccc(Cn3ccccc3=O)cc2)cc1C(=O)NCc1cc(OC)ccc1C(F)(F)F [Example 79, N-{[5-methoxy-2-(trifluoromethyl)phenyl]methyl}-3-(methoxymethyl)-1-({4-[(2-oxopyridin-1-yl)methyl]phenyl}methyl)pyrazole-4-carboxamide]	0.0147 µM	> 40 µM	2%	–
COc1cccc(CNC(=O)c2cn(Cc3ccc(Cn4ccccc4=O)cc3)nc2NC(C)=O)c1F [Example 71, 3-acetamido-N-[(2-fluoro-3-methoxyphenyl)methyl]-1-({4-[(2-oxopyridin-1-yl)methyl]phenyl}methyl)pyrazole-4-carboxamide]	0.3 µM	> 10 µM	0%	–
COc1cccc(CNC(=O)c2cn(Cc3ccc(Cn4ccccc4=O)cc3)nc2C2CC2)c1F [Example 52, 3-cyclopropyl-N-[(2-fluoro-3-methoxyphenyl)methyl]-1-({4-[(2-oxopyridin-1-yl)methyl]phenyl}methyl)pyrazole-4-carboxamide]	0.0233 µM	> 40 µM	–	1%
COCc1nn(Cc2ccc(Cn3ccccc3=O)cc2)cc1C(=O)NCc1cccc(OC(F)F)c1F [Example 90, N-{[3-(difluoromethoxy)-2-fluorophenyl]methyl}-3-(methoxymethyl)-1-({4-[(2-oxopyridin-1-yl)methyl]phenyl}methyl)pyrazole-4-carboxamide]	0.154 µM	> 40 µM	2%	–
COc1cccc(CNC(=O)c2cn(Cc3ccc(Cn4ccccc4=O)cc3)c(C)n2)c1F [Example 121, N-[(2-fluoro-3-methoxyphenyl)methyl]-2-methyl-1-({4-[(2-oxopyridin-1-yl)methyl]phenyl}methyl)imidazole-4-carboxamide]	0.0439 µM	> 10 µM	0%	–
COCc1nn(Cc2ccc(Cn3ccccc3=O)cc2)cc1C(=O)NCc1cccc(OC)n1 [Example 40, 3-(methoxymethyl)-N-[(6-methoxypyridin-2-yl)methyl]-1-({4-[(2-oxopyridin-1-yl)methyl]phenyl}methyl)pyrazole-4-carboxamide]	3.7 µM	> 10 µM	1%	–
COCc1nn(Cc2ccc(Cn3ccccc3=O)cc2)cc1C(=O)NCc1cc(F)cc(OC)c1F [Example 96, N-[(2,5-difluoro-3-methoxyphenyl)methyl]-3-(methoxymethyl)-1-({4-[(2-oxopyridin-1-yl)methyl]phenyl}methyl)pyrazole-4-carboxamide]	0.075 µM	> 40 µM	0%	–
COCc1nn(Cc2ccc(Cn3ccccc3=O)cc2)cc1C(=O)NCc1cc(OC)ccc1F [Example 64, N-[(2-fluoro-5-methoxyphenyl)methyl]-3-(methoxymethyl)-1-({4-[(2-oxopyridin-1-yl)methyl]phenyl}methyl)pyrazole-4-carboxamide]	0.0352 µM	> 10 µM	0%	–
COCc1nn(Cc2ccc(Cn3ccccc3=O)cc2)cc1C(=O)NCc1cc(F)ccc1F [Example 94, N-[(2,5-difluorophenyl)methyl]-3-(methoxymethyl)-1-({4-[(2-oxopyridin-1-yl)methyl]phenyl}methyl)pyrazole-4-carboxamide]	0.78 µM	> 10 µM	0%	–
NC(=O)c1cccc(CNC(=O)c2cn(Cc3ccc(Cn4ccccc4=O)cc3)nc2C2CC2)c1 [Example 49, N-[(3-carbamoylphenyl)methyl]-3-cyclopropyl-1-({4-[(2-oxopyridin-1-yl)methyl]phenyl}methyl)pyrazole-4-carboxamide]	5.45 µM	> 10 µM	–	0%
Nc1nn(Cc2ccc(Cn3ccccc3=O)cc2)cc1C(=O)NCc1cccc(O)c1F [Example 130, 3-amino-N-[(2-fluoro-3-hydroxyphenyl)methyl]-1-({4-[(2-oxopyridin-1-yl)methyl]phenyl}methyl)pyrazole-4-carboxamide]	0.174 µM	> 40 µM	0%	–
COCc1nn(Cc2ccc(Cn3ccccc3=O)cc2)cc1C(=O)NCc1cc(F)cc(OC)c1 [Example 95, N-[(3-fluoro-5-methoxyphenyl)methyl]-3-(methoxymethyl)-1-({4-[(2-oxopyridin-1-yl)methyl]phenyl}methyl)pyrazole-4-carboxamide]	0.308 µM	> 40 µM	1%	–
COc1cccc(CNC(=O)c2cn(Cc3ccc(Cn4ccccc4=O)cc3)nc2N(C)C(C)=O)c1F [Example 72, N-[(2-fluoro-3-methoxyphenyl)methyl]-3-(N-methylacetamido)-1-({4-[(2-oxopyridin-1-yl)methyl]phenyl}methyl)pyrazole-4-carboxamide]	6.61 µM	> 10 µM	1%	–
COCc1nn(Cc2ccc(Cn3ccccc3=O)cc2)cc1C(=O)NCc1cc(Cl)cc(OC)c1 [Example 67, N-[(3-chloro-5-methoxyphenyl)methyl]-3-(methoxymethyl)-1-({4-[(2-oxopyridin-1-yl)methyl]phenyl}methyl)pyrazole-4-carboxamide]	0.393 µM	> 10 µM	0%	–
COCc1nn(Cc2ccc(Cn3ccccc3=O)cc2)cc1C(=O)NCc1c(F)ccc(Cl)c1F [Example 73, N-[(3-chloro-2,6-difluorophenyl)methyl]-3-(methoxymethyl)-1-({4-[(2-oxopyridin-1-yl)methyl]phenyl}methyl)pyrazole-4-carboxamide]	0.12 µM	> 10 µM	8%	–
COCc1nn(Cc2ccc(Cn3ccccc3=O)cc2)cc1C(=O)NCc1cc(Cl)ccc1C#N [Example 76, N-[(5-chloro-2-cyanophenyl)methyl]-3-(methoxymethyl)-1-({4-[(2-oxopyridin-1-yl)methyl]phenyl}methyl)pyrazole-4-carboxamide]	0.0283 µM	> 40 µM	5%	–
